Results: patent US20200261391A1, “METHODS OF REDUCING THE RISK OF A CARDIOVASCULAR EVENT IN A STATIN-TREATED SUBJECT BY INCREASING SERUM AND PLASMA EPA AND DPA LEVELS” (Amarin Pharmaceuticals Ireland Limited, priority 2019, published 2020)

Key:
Type in all cases: in vivo, human
[1] = system: patients with elevated triglyceride levels on statin therapy; assay: REDUCE-IT endpoints by EPA blood level tertile in the icosapent ethyl group compared to placebo; conditions: averaged upper EPA tertile vs below the upper tertile
Method: To assess the relationship between on-treatment hsCRP and the primary and key secondary endpoints, subgroup analyses were carried out as done for the ITT population for patients grouped according to values greater or equal to or less than […] at baseline and at 2 years. To assess the relationship between on-treatment serum EPA and the primary and key secondary endpoints, Kaplan-Meier (KM) curves were produced for AMR101 treated patients grouped into tertiles based on their values at year 1 and were compared with the placebo-treated patients.
This is a study aimed towards determining a relative risk reduction (RRR) between subjects stratified by EPA tertiles in the REDUCE-IT clinical trial described above in Example 1. Samples were obtained from those subjects and total EPA and AA levels in human serum and plasma samples were determined according at least to the methods described in Example 7.
(§1) The objective of this study is to assess the effects of administering icosapent ethyl at 4 g per day to patients from the REDUCE-IT trial of Example 1. More specifically, patients from the REDUCE-IT trial of Example 1 were stratified by their EPA levels into one of three tertiles. Following stratification, the objective was to determine if the RRR differs between patients having EPA levels in the three different tertiles. For the data collected as shown in Tables 38-43 and FIGS. 52, 53, and 56-59, the tertiles were established based on data collected from subjects at 1 year, 2 years, and last visit following icosapent ethyl administration compared to placebo. Data are presented as an average of 1 year, 2 year, […], and end of study values. The data was further analyzed use both pooled and unpooled statistically methods.

[2] = system: patients with elevated triglyceride levels on statin therapy; assay: REDUCE-IT endpoints by pooled (icosapent ethyl and placebo) EPA blood level tertile
Source text: as §1
(0.84 for lowest vs. placebo, 0.72 for middle vs. placebo, and 0.65 for highest vs. placebo).

[3] = system: patients with elevated triglyceride levels on statin therapy; assay: REDUCE-IT endpoints by pooled (icosapent ethyl and placebo) EPA/AA ratio tertile
Source text: as §1
Placebo and icosapent ethyl treated subjects were pooled and stratified based on EPA/AA tertiles with […], […], and the highest […]

[4] = system: patients with elevated triglyceride levels on statin therapy; assay: REDUCE-IT endpoints by pooled (icosapent ethyl and placebo) EPA blood level tertile; conditions: FIG. 54; ITT pooled; tertiles ≤31.733, >31.733 to ≤120.175, >120.175 μg/mL
[5] = pooled, tertiles ≤31.305, >31.305 to ≤118.1, >118.1 μg/mL
[6] = FIG. 56, ITT pooled, tertiles ≤0.0857, >0.0857 to ≤0.4053, >0.4053
[7] = pooled, tertiles ≤0.084337, >0.084337 to ≤0.395187, >0.395187

For `CC/C=C\C/C=C\C/C=C\C/C=C\C/C=C\CCCC(=O)O` [EPA, eicosapentaenoic acid], the “primary endpoint HR, average achieved EPA >181 mg/L vs ≤181 mg/L” value [1] was 0.842, the “primary composite endpoint RRR, highest vs lowest EPA tertile” value ([2]; FIG. 52, pooled) was 43% and the “primary composite endpoint RRR, highest vs middle EPA tertile” value ([2]; FIG. 52, pooled) was 30%. For the same compound, the “primary composite endpoint RRR, middle vs lowest EPA tertile” value ([2]; FIG. 52, pooled) was 29%, the “primary composite endpoint HR, middle vs lowest EPA tertile” value ([2]; FIG. 54, ITT pooled, tertiles ≤31.733, >31.733 to ≤120.175, >120.175 μg/mL) was 0.79 and the “primary endpoint HR, highest vs. lowest tertile” value ([2]; pooled placebo and icosapent ethyl, tertiles ≤31.305, >31.305 to ≤118.1, >118.1 μg/mL) was 0.65. The “key secondary endpoint HR, highest vs. lowest tertile” value [2, 5] was 0.61, the “key secondary endpoint HR, highest vs. middle tertile” value [2, 5] was 0.78 and the “key secondary endpoint HR, middle vs. lowest tertile” value [2, 5] was 0.78. For the same compound, the “primary endpoint HR, highest vs. middle tertile” value [2, 5] was 0.80, the “primary endpoint HR, middle vs. lowest tertile” value [2, 5] was 0.81 and the “primary endpoint HR, highest vs. lowest EPA/AA tertile” value [3, 6] was 0.63. The “primary endpoint HR, middle vs. lowest EPA/AA tertile” value [3, 6] was 0.79, the “key secondary endpoint HR, highest vs. lowest EPA/AA tertile” value [3, 7] was 0.57 and the “key secondary endpoint HR, highest vs. middle EPA/AA tertile” value [3, 7] was 0.75. The “key secondary endpoint HR, middle vs. lowest EPA/AA tertile” value [3, 7] was 0.76, the “primary endpoint HR, highest vs. lowest EPA/AA tertile” value [3, 7] was 0.64 and the “primary endpoint HR, highest vs. middle EPA/AA tertile” value [3, 7] was 0.84. For the same compound, the “primary endpoint HR, middle vs. lowest EPA/AA tertile” value [3, 7] was 0.77 and the “primary composite endpoint HR, high vs lowest EPA tertile” value [4] was 0.64.
